The source of these data is ChEMBL document CHEMBL5584318, “Targeting Solvent-Front Mutations for Kinase Drug Discovery: From Structural Basis to Design Strategies” (J Med Chem, 2024).

The nature of the data set: Half life in human. It is filed as ADME.

As to `Cn1cc(-c2cnn3ccc(N4CCC[C@@H]4c4cc(F)ccc4OCC(F)F)nc23)cn1`, the half-life (as a rule, how long it takes for the measured level to halve) came to 8.3 min.

In turn, `Cn1cc(-c2cnn3ccc(N4CCC[C@@H]4c4cc(F)ccc4F)nc23)cn1` yielded a half-life of 3 min. The same measure for `C[C@@H](Nc1ccn2ncc(-c3cnn(C)c3)c2n1)c1cc(F)ccc1OCC(F)F`: 315 min.
